Laboratory results published in patent publication US5441956A, “Hydroisoquinoline derivatives” (Smithkline Beecham Farmaceutici S.p.A., priority 1991, dated 1995).
Structures can show the parent of a compound that is named as a salt.

Assays:
[1] = target: T1, κ opioid receptor (kappa sites) (Cavia porcellus, UniProt P41144); experiment: Binding to kappa sites (3H-BRL 52537A); conditions: guinea pig brain homogenate, 40 min at 25° C.
T1 construct: performed on fresh guinea pig brain homogenates; from tissue; host or cells: guinea pig whole brain without cerebellum, washed membrane homogenate
Procedure: (§1) Radio receptor binding to delta, mu and kappa sites is performed on fresh guinea pig brain homogenates prepared according to Kosterlitz (1981). Whole brain, without cerebellum is homogenized in 50 mM Tris-buffer and centrifuged at 49,000×g for 10 min.
(§2) The pellet is then resuspended in the s3me buffer, incubated at 37° C. for 45 min. and centrifuged again.
(§3) 1.9 ml of the final homogenate (1:100 in Tris-pH 7.4 0° C.) is used for the binding assay.
Final homogenate with solutions of the cold ligand and of the labelled ligand is incubated for 40 min. at 25° C., filtered through Whatman GF-C glass filter discs and washed. The radioactivity bound to the filters is counted by liquid scintillation spectrophotometry.

[2] = target: T2, μ opioid receptor (mu sites) (Cavia porcellus, UniProt A0ACM8Q262); experiment: Binding to mu sites (3H-DAGO); conditions: guinea pig brain homogenate, 40 min at 25° C.
T2 construct: 3H-DAGO (DAMGO) displacement
Procedure: as §1, §2, §3
Binding to mu sites (Magnan J., 1982)
^3 H-[D-Ala^2, MePhe^4, Gly-Ol^5 ]Enkephalin (^3 H-DAGO), an enkephalin analogue that binds selectively to mu receptor, is added to the biological substrate and incubated at 25° C. for 40 min, filtered through Whatman GF-C filters and washed with ice-cold Tris buffer. The filters are then dried, solubilized in Filtercount and the radioactivity monitored. Non-specific binding is determined in the presence of 10^-6 M naloxone.

[3] = target: T3, δ opioid receptor (delta sites) (Cavia porcellus, UniProt A0A286XTF2); experiment: Binding to delta sites (radioreceptor binding, 3H-DADLE with unlabelled DAGO); conditions: guinea pig brain homogenate, 3H-DADLE + 30 nM DAGO, 40 min at 25° C.
T3 construct: performed on fresh guinea pig brain homogenates; from tissue; host or cells: guinea pig whole brain without cerebellum, washed membrane homogenate
Procedure: as §1, §2, §3
For binding experiments, ^3 H-DADLE, which binds to mu and delta sites, is used in the presence of 30 nM of unlabelled DAGO to prevent mu binding. A concentration of radioligand near KD is used in the binding assays evaluating compounds of the invention. Non-specific binding is determined by addition of Mr 2266, 2.5 μM. The tubes are incubated for 40 min at 25° C. and bound ligand is separated from free by filtration through Whatman GF-G filters. The level of bound radioactivity on the filters is measured by liquid scintillation after solubilization in filtercount. The equilibrium dissociation constant (KD) and the maximum binding capacity (Bmax) are determined from the analysis of saturation curves, while the inhibition constant (Ki) is determined from the analysis of competition experiments (Hill 1910; Scatchard 1949; Cheng and Prusoff 973; Gillan et al 1980).

[4] = tested on: mice (Male Charles River, Swiss Strain); experiment: Antinociception, tail-flick test in mice; type: in vivo, mouse; conditions: i.t., 10 min pretreatment
Procedure: The methodology employed is based on that described by D'Amour and Smith, J. Pharmacol. Exp. Ther. 72, 74 (1941).
Male Charles River mice (Swiss Strain) 29-35 g body weight are used.
Animals are allowed food and water ad libitum and are randomized into groups of 10 prior to experimentation.
Test compounds are dissolved in either distilled water or distilled water plus 0.1M AMS and administered by the intrathecal route in a final volume of 5 μl/mouse, according to the method described by Hylden and Wilcox, Eur. J. Pharmacol. 67,313 (1980).
Four hours prior the beginning of experiments, mice are anaesthetized with pentobarbital (80 mg/Kg i.p.) and a caudal cutaneous incision (1 cm) is performed on the back using a disposable 30 gauge 1/2 inch needles mated to a 50 μl luer siringe (Hamilton). The drug are delivered intrathecally between L5 and L6 of spinous process.
Control animals receive […] of the appropriate vehicle alone. Following a pretreatment period of 10 min., the mice are again placed under the heat source and the reaction time redetermined.
Percentage quantal protection is determined as the number of mice in which the reaction time is doubled compared to pretreatment values, expressed as a percentage of the total number of mice in the group.

T3 sequence (A0A286XTF2 1-366): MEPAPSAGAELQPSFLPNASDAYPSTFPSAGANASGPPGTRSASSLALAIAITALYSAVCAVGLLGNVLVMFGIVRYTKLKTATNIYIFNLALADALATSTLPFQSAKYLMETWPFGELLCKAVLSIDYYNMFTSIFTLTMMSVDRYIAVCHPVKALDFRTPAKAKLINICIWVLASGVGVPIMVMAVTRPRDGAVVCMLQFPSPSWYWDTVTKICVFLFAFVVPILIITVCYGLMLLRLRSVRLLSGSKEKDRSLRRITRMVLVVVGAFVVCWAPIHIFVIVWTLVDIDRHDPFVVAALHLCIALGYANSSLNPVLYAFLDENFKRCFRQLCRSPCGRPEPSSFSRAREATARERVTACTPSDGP
T1 sequence (P41144 whole entry): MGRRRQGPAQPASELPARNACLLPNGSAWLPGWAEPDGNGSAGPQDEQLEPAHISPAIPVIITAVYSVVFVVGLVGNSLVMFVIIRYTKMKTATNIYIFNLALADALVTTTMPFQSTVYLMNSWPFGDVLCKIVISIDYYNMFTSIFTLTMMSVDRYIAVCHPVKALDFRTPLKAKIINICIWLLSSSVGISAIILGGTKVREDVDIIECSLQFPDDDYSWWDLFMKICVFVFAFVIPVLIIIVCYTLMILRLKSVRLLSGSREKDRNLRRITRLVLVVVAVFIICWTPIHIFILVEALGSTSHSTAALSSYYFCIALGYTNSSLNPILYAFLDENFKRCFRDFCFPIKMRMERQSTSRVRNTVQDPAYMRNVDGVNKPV
T2 sequence (A0ACM8Q262 1-400): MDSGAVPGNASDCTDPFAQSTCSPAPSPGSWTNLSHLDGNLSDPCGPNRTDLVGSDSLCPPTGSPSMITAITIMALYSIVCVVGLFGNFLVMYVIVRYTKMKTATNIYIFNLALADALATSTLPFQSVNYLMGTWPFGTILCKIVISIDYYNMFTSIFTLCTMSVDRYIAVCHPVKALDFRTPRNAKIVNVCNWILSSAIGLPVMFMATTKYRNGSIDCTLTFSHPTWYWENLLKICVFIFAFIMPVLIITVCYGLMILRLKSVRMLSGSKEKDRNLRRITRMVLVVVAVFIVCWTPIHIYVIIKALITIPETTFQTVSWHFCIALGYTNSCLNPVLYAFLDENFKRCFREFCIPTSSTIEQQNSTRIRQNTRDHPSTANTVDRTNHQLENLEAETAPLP

Structure (SMILES)	Ki [1] [nM]	Ki [2] [nM]	Ki [3] [nM]	Antinociception Mouse Tail-Flick ED50 [4] [mg/mouse]
CN1CC[C@]2(c3cccc(O)c3)Cc3oc4ccccc4c3C[C@H]2C1 (relative stereo) [Example 10, 2-Methyl-4aα-(3-hydroxyphenyl)-1,2,3,4,4a,5, 11, 11aβ-octahydrobenzofuro[2,3-g]isoquinoline]	> 1000	104	10.1	–
CN1CC[C@]2(c3cccc(O)c3)Cc3[nH]c4ccccc4c3C[C@H]2C1 (relative stereo) [Example 5, 2-Methyl-4aα-(3-hydroxyphenyl)-1,2,3,4,4a,5,11,11aβ-octahydroindolo[2,3-g]isoquinoline hydrochloride]	> 1000	309	16	–
Cc1ccc2[nH]c3c(c2c1)C[C@H]1CN(C)CC[C@]1(c1cccc(O)c1)C3 (relative stereo) [Example 12, 2,9-Dimethyl-4aα-(3-hydroxyphenyl)-1,2,3,4,4a,5,11,11aβ-octahydroindolo[2,3-g]isoquinoline]	> 1000	678	61.9	–
CCN1CC[C@]2(c3cccc(O)c3)Cc3[nH]c4ccccc4c3C[C@H]2C1 (relative stereo) [Example 1, 2-ethyl-4aα-(3-hydroxyphenyl)-1,2,3,4,4a,5,11,11aβ-octahydro indolo[2,3-g]isoquinoline hydrochloride]	> 1000	2070	16.4	0.010
CCN1CC[C@]2(c3cccc(O)c3)Cc3[nH]c4ccccc4c3C[C@H]2C1 (single isomer, unassigned) [Example 39, (+)-2-Ethyl-4aα-(3-hydroxyphenyl)-1,2,3,4,4a,5,11,11aβ-octahydroindolo[2,3-g]isoquinoline hydrochloride]	> 1000	2260	6.24	–
CN1CC[C@]2(c3cccc(O)c3)Cc3c(c4ccccc4n3C)C[C@H]2C1 (relative stereo) [Example 7, 2,6-Dimethyl-4aα-(3-hydroxyphenyl)-1,2,3,4,4a,5,11,11aβ-octahydroindolo[2,3-g]isoquinoline]	> 1000	306	33.6	–
CN1CC[C@]2(c3cccc(O)c3)Cc3[nH]c4c(Cl)cccc4c3C[C@H]2C1 (relative stereo) [Example 16, 2-Methyl-4aα-(3-hydroxyphenyl)-7-chloro-1,2,3,4,4a,5,11,11aβ-octahydroindolo[2,3-g]isoquinoline]	> 1000	568	16.4	–
